The values below come from US8153784B2, “Imaging of enzyme activity” (The General Hospital Corporation, priority 2004, dated 2012).

One data set deals with T1, human neutrophil MPO (Homo sapiens, UniProt P05164).
T1 construct: purchased BioDesign Inc
The data set can be described thus: MPO-mediated polymerization of DOTA(Gd) substrates: T1/T2 relaxivity change. Type of data set: biochemical. Particulars: for relaxivity ratio: ˜2000 U of MPO activity. As for the experimental part:
(§1) Reactions with HRP and MPO were carried out at room temperature in the presence of 0.5-1 mM substrate dissolved in 0.5 ml PBS containing H2O2 (2 mM). Reaction was initiated by adding an aliquot containing the enzyme (either HRP or MPO) and vortexing. After at least a 30 min incubation period T1 was measured using inversion-recovery pulse sequence Bruker Minispec (Buker Analytics, North Bellirica Mass.) at 0.47 T (20 MHz). Size-exclusion HPLC of reaction products was performed on TSK G3000SWXL macroporous column (Supelco) eluted with 0.1 M triethylammonium acetate, pH 7.0 at 1 ml/min.
(§2) Standard 96-well plates were prepared and imaged on a 1.5 T whole body clinical General Electric Signa MRI scanner utilizing a standard 3 inch surface coil. Inversion recovery sequences were used to measure T1 relaxation and spin echo sequences were utilized to measure T2 relaxation. T2 weighted images were obtained with TR=5000 ms and TE=100 ms with a fast spin echo sequence. T1 weighted images were obtained with spin echo sequences with the following parameters: TR=100, 200, 350, or 500, TE=11. For the Matrigel™ experiments, a relatively T2 weighted image was obtained at TR=300 ms and TE=200 ms. Single-exponential models were used to obtain T1 and T2. The relaxivities were computed by normalizing relaxation rates to the concentration of gadolinium in each sample, obtained by inductive coupled plasma (ICP) analysis performed by Galbraith Laboratories.
To determine the effect of myeloperoxidase on the substrates, we performed T1 and T2 relaxivity measurements in aqueous solutions, with and without MPO and hydrogen peroxide, at 0.47 T and 1.5 T (the results are summarized in FIGS. 3A and 3B for tyramide-DOTA(Gd) and FIGS. 4A and 4B for 5-HT-DOTA(Gd)). For reference, the two substrates were also reacted with HRP (solid symbols in FIGS. 3A and 3B and FIGS. 4A and 4B).

The next data set concerns the target T2, MPO-I (Homo sapiens, UniProt P05164).
T2 sequence (P05164 49-745): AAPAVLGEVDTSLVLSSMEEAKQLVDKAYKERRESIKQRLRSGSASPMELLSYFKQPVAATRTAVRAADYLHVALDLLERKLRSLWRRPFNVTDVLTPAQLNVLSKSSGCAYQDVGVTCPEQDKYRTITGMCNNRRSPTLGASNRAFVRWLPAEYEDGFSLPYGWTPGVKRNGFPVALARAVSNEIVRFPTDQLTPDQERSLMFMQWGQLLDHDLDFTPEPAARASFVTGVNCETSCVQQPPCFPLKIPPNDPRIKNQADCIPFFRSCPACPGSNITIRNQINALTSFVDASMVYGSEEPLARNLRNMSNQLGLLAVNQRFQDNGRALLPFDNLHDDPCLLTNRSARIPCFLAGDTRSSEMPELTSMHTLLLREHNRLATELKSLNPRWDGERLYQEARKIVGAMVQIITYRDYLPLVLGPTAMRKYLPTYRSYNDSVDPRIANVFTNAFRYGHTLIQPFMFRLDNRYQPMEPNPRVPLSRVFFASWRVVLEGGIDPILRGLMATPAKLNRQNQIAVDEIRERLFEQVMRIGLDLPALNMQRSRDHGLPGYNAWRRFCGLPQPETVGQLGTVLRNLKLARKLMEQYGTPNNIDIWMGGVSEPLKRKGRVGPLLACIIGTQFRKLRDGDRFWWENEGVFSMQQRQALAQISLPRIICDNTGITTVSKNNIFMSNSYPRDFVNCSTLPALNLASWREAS
As to conditions: cited from earlier work.

Data set [1] deals with T3, human MPO embedded in Matrigel (Homo sapiens, UniProt P05164).
T3 construct: purchased BioDesign, Inc
T3 sequence (P05164 49-745): T2 sequence (P05164 49-745)
Kind of data set: MPO/Matrigel implant mouse model, T1-weighted MR imaging. Type of data set: in vivo. As to conditions: mice; right MPO/Matrigel vs left control; 1.5 T. Here is the method: To evaluate the monomeric substrates in vivo, we devised a mouse model that harbored 400 μL of Matrigel basement membrane matrix gel mixed 1:1 by volume with a solution containing 15 U of human MPO and glucose oxidase (as a source of hydrogen peroxide) that was injected into the right flank of the mouse. The left flank was injected with the enzyme-free Matrigel mixture. We subsequently performed T1-weighted MR imaging after the intravenous injection of Gd-DTPA-diSer substrate at the dose of […].
The MR imaging experiments were performed on a 1.5 T GE Excite scanner and a 4.7 T Bruker Pharmascan scanner. For all MR imaging experiments, precontrast T2-(TR=2000, TE=100, ETL=8, NEX=4, fast spin echo sequence) and T1-weighted images (TR=500, TE=11, NEX=4, spin echo sequence) with fat saturation were initially performed to locate the gels or area of inflammation. The substrates (0.3 mmol/kg) were subsequently injected via the tail vein of the mouse. The mouse was immediately imaged after the injection of the contrast agent using multiple T1-weighted sequences with fat saturation for at least 3 hours.
(§3) Ten-week old C57BL6 male mice were obtained from Jackson Laboratories. A total of 22 mice were used for the study. • 1. MPO/Matrigel imaging experiments: Matrigel™ (Beckton-Dickinson), a […] basement membrane matrix gel was used to immobilize human MPO and glucose oxidase (to supply H2O2 required for detecting MPO oxidative activity, Calbiochem). This was chosen to reflect deposits of human MPO in inflamed tissue in a mouse model. 400 μL of a mixture of Matrigel™ and MEM (Cambrex) was injected slowly into the thighs of each mouse one hour prior to imaging. The right thigh mixture also contained 15 U of MPO and 4 U of glucose oxidase (Calbiochem), while the left thigh mixture contained no enzyme and thus serves as an internal control. A total of 15 mice were used (3 mice each for 5-HT-DOTA(Gd), bis-5-HT-DTPA(Gd), bis-5-HT-DTPA-^111In, bis-tyramide-DTPA(Gd), and DTPA(Gd)). • 2. LPS/Matrigel experiments (n=3): This model was developed to induce endogeneous mouse MPO secretion and activation. 200 μL total volume Matrigel containing 10% heparin was injected slowly into the thighs of the mice 4 days prior to imaging. The right-sided mixture also contained E. coli lipopolysaccharide (LPS) at 10 μg/mL. One mouse was sacrificed for immunohistochemistry. • 3. Myositis experiments (n=4): LPS at 100 μg/mL in PBS was injected into each mouse intramuscularly in the right flank to produce myositis. The mice are imaged 24 hours after injection.
For normalized signal intensity measured on T1-weighted images, mean±standard deviation (SD) values were calculated in regions of interest (ROI). Contrast-to-noise (CNR) ratios were computed for each ROI according to the formula

Data set [2] deals with T4, horseradish peroxidase (HRP) (Armoracia rusticana, UniProt P00433).
T4 sequence (P00433 31-338): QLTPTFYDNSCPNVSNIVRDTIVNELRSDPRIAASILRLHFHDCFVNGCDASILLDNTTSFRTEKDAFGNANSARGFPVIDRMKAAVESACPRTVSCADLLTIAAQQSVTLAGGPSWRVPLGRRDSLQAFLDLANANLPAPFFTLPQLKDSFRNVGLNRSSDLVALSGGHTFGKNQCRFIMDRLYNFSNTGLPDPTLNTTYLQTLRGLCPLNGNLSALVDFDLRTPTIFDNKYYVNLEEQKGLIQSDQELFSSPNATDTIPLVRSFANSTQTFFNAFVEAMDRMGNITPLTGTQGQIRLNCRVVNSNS
The data set can be described thus: HRP-mediated polymerization of DOTA(Gd) substrates: relaxivity change. The arrangement: purchased Sigma. Type of data set: biochemical. As for the experimental part: as §1
as §2, with “The relaxivities were computed by normalizing relaxation rates to the concentration of gadolinium in each sample, obtained by inductive coupled plasma (ICP) analysis performed by Galbraith Laboratories.” left out

In data set [3] the target is T4, horseradish peroxidase (HRP). Kind of data set: Pseudo-first-order rate constants of HRP-mediated conversion (relaxation times over time, 0.47 T). The arrangement: purchased Sigma-Aldrich type XII (catalogue number not given). It is filed as biochemical, horseradish. As to conditions: from T1 measurements, mean±SD. Here is the method:
Kinetics of the samples were observed by measuring T1 and T2 at 0.47 T and 40° C. of the samples over at least a 24 hour period. At different time points, 1 M of sodium azide (final concentration=0.17 M) was added to stop the enzyme mediated reaction. The resultant progress curve was fitted with an empirical mathematical model and analyzed according to the Guggenheim method to obtain the pseudo-first-order rate constants (Guggenheim E A. Philos. Mag. 1926; 2:538).
An important property of a suitable substrate for an enzyme is the kinetics of enzymatic reaction. To determine the utility of the paramagnetic complexes as suitable substrates for human myeloperoxidase (MPO), we measured the pseudo-first-order rate constant of these substrates in MPO, and compared to the same substrates' reactions in Horse Radish Peroxidase (HRP) by monitoring the changes in relaxation time over time. […] The results shown were obtained using T1 measurements. T2 measurements yielded nearly identical results. The results are presented as mean±SD. N/A=not applicable.

Data set [4] can be described thus: Biodistribution of 111In tracer. Particulars: mice, 6 h post injection. It is filed as in vivo, mouse. Here is the method:
(§4) 80-100 μCi of ^111In-bis-5-HT-DTPA in 200 μL of saline was injected intravenously into three mice prepared in the same manner as in the MPO/Matrigel MR imaging experiments. The animals were imaged 3 hours after injection on a high resolution X-SPECT/CT system (Gamma Medica). Six hours after injection, the animals were sacrificed and biodistribution was determined in major organs. The % dose accumulated per gram of major organs was determined by using the 1480 Wizard gamma counter (Perkin-Elmer).

The target in a further data set is T5, MPO (Homo sapiens, UniProt P05164).
T5 sequence (P05164 49-745): T2 sequence (P05164 49-745)
Kind of data set: SPECT-CT imaging of MPO/Matrigel implants with 111In tracer. It is filed as in vivo, mouse. The arrangement: purchased BioDesign, Inc. Here is the method:
as §3, §4

Where only a bound is given, the exact number is not on record here.

As to `CC(C(=O)NCC(=O)NCCc1ccc(O)c(O)c1)N1CCN(CC(=O)[O-])CCN(CC(=O)[O-])CCN(CC(=O)[O-])CC1.[Gd+3]` (stereo not shown) [hydroxytyramide-DOTA(Gd), Glycylmethyl DOTA(Gd) Hydroxytyramide], at human neutrophil MPO, the “reaction with MPO” value is on record as “does not react with MPO” and the “relaxivity increase from reaction with MPO” value is “did not result in a substantially significant relaxivity increase”.
Turning to `NCCc1c[nH]c2ccc(O)cc12` [serotonin, 3-(2-aminoethyl)-5-hydroxyindole], on MPO-I (about 5,000 times higher excess of chloride), the “MPO-mediated oxidation in excess chloride” value was “could not be completely stopped”. The “kinetic constant of the MPO-I reaction relative to the reaction with chloride” value on MPO-I (neutral pH) was “about 10 times”.
On to `O=C(O)CN(CCN(CC(=O)O)CC(=O)NCCc1c[nH]c2ccc(O)cc12)CCN(CC(=O)O)CC(=O)NCCc1c[nH]c2ccc(O)cc12` [Compound 2], for which the “enhancement of MPO implant compared with control implant” value in data set [1] is “significantly increased enhancement”.
In the case of `CC(C(=O)NCC(=O)NCCc1ccc(O)cc1)N1CCN(CC(=O)[O-])CCN(CC(=O)[O-])CCN(CC(=O)[O-])CC1.[Gd+3]` (stereo not shown) [tyramide-DOTA(Gd), Glycylmethyl DOTA(Gd) Tyramide], the relaxivity ratio is reported as 1.7 times on human neutrophil MPO (0.47 T), 1.4 times on human neutrophil MPO (1.5 T), “about 2.3 times” in data set [2] (0.47 T) and “about 2.1 times” in data set [2] (1.5 T). In addition, the “T1 shortening relative to the HRP result” value on human neutrophil MPO (2000 U MPO) is recorded as 70-75%. The “MPO needed to reach >90% of the T1 shortening seen with HRP” value at human neutrophil MPO (assuming a linear response to the amount of MPO) is on record as more than 3000 U. In addition, on human neutrophil MPO (equivalent amount of MPO, clinical imaging strength), the “increase in relaxivity of polymer product” value is reported as 1.4 times. Further, in data set [3], the “Pseudo first-order rate constant” value was found to be 0.0095 s⁻¹.
Take `O=C([O-])CN(CCN(CC(=O)[O-])CC(=O)NCCc1c[nH]c2ccc(O)cc12)CCN(CC(=O)[O-])CC(=O)NCCc1c[nH]c2ccc(O)cc12.[111In+3]` [^111In-bis-5-HT-DTPA]: in data set [4], the injected dose excreted was 90%; the “organs holding most of the remaining dose” value is “spleen, bowel, kidney, and liver”. The “organs holding most of the remaining dose” value in data set [4] (listed as 111In-chelated monomeric substrate) is “spleen, kidneys, bowel, and liver”. For the same compound, at MPO (mice n=3, SPECT-CT 3 hours after injection), the “increase in the radioactivity of the right leg (with MPO) vs. the left leg (without MPO)” value was found to be 2.3±0.3 fold. The “increase in count in the dissected gel with embedded MPO” value on MPO (mice, 6 h post injection) is listed as “greater than 4 fold”. Further, on MPO (mouse, SPECT/CT 3 hours after the injection), the “uptake on the side containing MPO” value was “significant increased uptake”.
